In one test the target is COX2 (Ovis aries (Sheep), UniProt P79208). Description: COX-2 activity, colorimetric assay. The format is biochemical, ovine. To be noted: screening dose 100 μM; read-out: IC50 μM against COX2. Here is the method:
(§1) Compounds according to the present disclosure were tested for their in vitro ability to inhibit recombinant human PDE5, COX1 and COX2 enzymes at screening doses of 50, 100 and 100 μM respectively.
(§2) COX-1 and COX-2 activities were measured using purified ovine COX-1 and COX-2 with colorimetric assay kits obtained from Cayman Chemical Co. (Ann Arbor, Mich.). The activities of COX-1 and COX-2 were measured after the addition of arachidonic acid and incubation at 25° C. for 5 min by absorbance at 590 nm as specified by the manufacturer.

The next test addresses recombinant human PDE5 (Homo sapiens (Human), UniProt O76074). In words: PDE5 inhibition, IMAP fluorescence polarization assay. The format is biochemical. To be noted: recombinant human PDE5; IC50 determined if inhibition >50% at 50 μM screening dose; read-out: IC50 μM against PDE5. Here is the method: as §1
PDE activity was measured using the IMAP fluorescence polarization assay (Molecular Devices) in which binding of hydrolyzed cyclic nucleotide substrate to immobilized metal coordination complexes increases fluorescence polarization (FP). Tetramethylrhodamine (TAMRA)-cGMP and fluorescein-cAMP were used as substrates, each at final concentration of 50 nmol/L. The PDE assay was done according to the manufacturer's specifications using either whole cell lysates or recombinant enzymes.
(In general: Fluorescence polarisation rises when a labelled molecule tumbles more slowly, as on binding a larger partner.)

In another test the target is COX1 (Ovis aries (Sheep), UniProt P05979). Description: COX-1 activity, colorimetric assay. In kind it is biochemical, ovine. To be noted: screening dose 100 μM; read-out: IC50 μM against COX1. Here is the method:
as §1, §2

Test [1] has as its system human colorectal HT-29 tumor cell line. In words: Tumor cell growth assay (Cell Titer Glo). The format is cell-based. To be noted: HT-29, 72 hours, read-out: IC50 μM against HT-29.
Test [2] has as its system human breast MDA-MB-231 tumor cell line. Description: Tumor cell growth assay (Cell Titer Glo). As to conditions: MDA-MB-231, 72 hours, read-out: IC50 μM against MDA-MB-231. In kind it is cell-based.

The record followed here is US9388139B2, “Derivatives of celeboxib, use thereof and preparation thereof” (German University, priority 2011, dated 2016).

For orientation: IC50 means the concentration needed to halve the response being measured.

Bounds are passed on as bounds.

COX1, sequence (P05979 25-600): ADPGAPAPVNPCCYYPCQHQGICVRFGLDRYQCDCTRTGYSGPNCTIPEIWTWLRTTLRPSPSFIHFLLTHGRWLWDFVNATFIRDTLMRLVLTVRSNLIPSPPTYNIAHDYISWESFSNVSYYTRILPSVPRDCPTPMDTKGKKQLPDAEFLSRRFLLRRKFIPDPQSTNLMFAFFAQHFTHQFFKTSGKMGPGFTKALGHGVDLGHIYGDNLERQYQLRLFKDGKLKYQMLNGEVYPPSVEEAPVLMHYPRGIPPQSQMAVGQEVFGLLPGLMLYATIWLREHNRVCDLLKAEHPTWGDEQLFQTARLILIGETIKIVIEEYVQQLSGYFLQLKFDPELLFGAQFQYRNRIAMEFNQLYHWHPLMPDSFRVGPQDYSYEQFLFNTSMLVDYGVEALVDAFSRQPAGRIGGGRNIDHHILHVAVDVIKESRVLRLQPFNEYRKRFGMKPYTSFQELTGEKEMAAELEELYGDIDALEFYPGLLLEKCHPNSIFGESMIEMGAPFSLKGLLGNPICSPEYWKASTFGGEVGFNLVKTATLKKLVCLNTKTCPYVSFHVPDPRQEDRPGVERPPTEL
COX2, sequence (P79208 17-603): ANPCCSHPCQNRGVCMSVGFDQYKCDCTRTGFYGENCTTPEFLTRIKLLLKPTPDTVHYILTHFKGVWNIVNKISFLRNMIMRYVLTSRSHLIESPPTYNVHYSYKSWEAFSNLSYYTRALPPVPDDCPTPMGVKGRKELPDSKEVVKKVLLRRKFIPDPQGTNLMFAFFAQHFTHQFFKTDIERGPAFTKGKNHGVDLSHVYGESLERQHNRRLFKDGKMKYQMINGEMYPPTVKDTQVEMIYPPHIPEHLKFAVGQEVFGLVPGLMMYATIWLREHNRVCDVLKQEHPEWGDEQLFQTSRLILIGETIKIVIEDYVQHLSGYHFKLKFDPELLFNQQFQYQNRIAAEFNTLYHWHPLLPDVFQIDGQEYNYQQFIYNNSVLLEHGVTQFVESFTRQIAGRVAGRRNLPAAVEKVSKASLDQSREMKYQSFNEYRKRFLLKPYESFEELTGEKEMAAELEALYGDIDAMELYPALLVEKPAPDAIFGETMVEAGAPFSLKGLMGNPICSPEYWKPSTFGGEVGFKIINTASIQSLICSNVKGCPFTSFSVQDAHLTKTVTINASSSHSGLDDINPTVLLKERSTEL

As to `CC(C)(C)C1=NN(c2ccc(C(=O)O)cc2)C(c2ccc(Br)cc2)C1` (centres unmarked) [Compound 24, 4-(5-(4-Bromophenyl)-3-tert-butyl-4,5-dihydro-1H-pyrazol-1-yl)benzoic acid], the IC50 at COX2 is over 100 µM; at recombinant human PDE5, 7.7 µM; at COX1 it was over 100 µM; in test [1], over 50 µM; in test [2] it was over 50 µM.
As to `CC(C)(C)C1=NN(c2ccc(S(=O)(=O)O)cc2)C(c2ccc(F)cc2)C1` (centres unmarked) [Compound 25, 4-(3-tert-Butyl-5-(4-fluorophenyl)-4,5-dihydro-1H-pyrazol-1-yl)benzenesulfonic acid], the half-maximal inhibitory concentration (IC50) on COX2 is over 100 µM; on recombinant human PDE5, 3.3 µM; at COX1, over 100 µM; in test [1], over 50 µM; in test [2], over 50 µM.
On to `CC(C)(C)C1=NN(c2ccc(S(=O)(=O)O)cc2)C(c2ccc(Cl)cc2)C1` (centres unmarked) [Compound 26, 4-(3-tert-Butyl-5-(4-chlorophenyl)-4,5-dihydro-1H-pyrazol-1-yl)benzenesulfonic acid], for which the IC50 at COX2 is over 100 µM; on recombinant human PDE5, 7.2 µM; on COX1, over 100 µM; in test [1] it was over 50 µM; in test [2], over 50 µM.
Take `COc1ccc(C2CC(c3ccc(F)cc3)=NN2c2ccc(C(=O)O)cc2)cc1` (centres unmarked) [Compound 27, 4-(3-(4-Fluorophenyl)-5-(4-methoxyphenyl)-4,5-dihydropyrazol-1-yl)benzoic acid]: the IC50 on COX2 was over 100 µM; on recombinant human PDE5, 3.1 µM; at COX1, over 100 µM; in test [1], over 50 µM; in test [2], over 50 µM.
